Measurements as given in ChEMBL document CHEMBL5356971, “Optimization of the Antibacterial Spectrum and the Developability Profile of the Novel-Class Natural Product Corramycin” (J Med Chem, 2023).
The source made the active and inactive calls. No cut-off for these calls is given here.

Experiments:
[1] = Metabolic stability in mouse kidney assessed as parent compound remaining measured after 4 hrs by UPLC-MS analysis; assay type: ADME, tissue-based; conditions: read-out: Stability
[2] = Metabolic stability in mouse lung assessed as parent compound remaining measured after 4 hrs by UPLC-MS analysis; assay type: ADME, tissue-based; conditions: for remaining at 4 h: mouse lung, read-out: Stability
[3] = Metabolic stability in mouse lung assessed as parent compound remaining measured after 1 hrs by UPLC-MS analysis; assay type: ADME, tissue-based; conditions: for remaining at 1 h: mouse lung, read-out: Stability
[4] = Metabolic stability in mouse kidney assessed as parent compound remaining measured after 1 hrs by UPLC-MS analysis; assay type: ADME, tissue-based; conditions: read-out: Stability
[5] = system: Escherichia coli; assay: Antibacterial activity against Escherichia coli ATCC 35218 assessed as reduction in microbial growth incubated for 20 to 22 hrs by CLSI based analysis; assay type: functional; conditions: time 20-22 hrs
[6] = system: Klebsiella pneumoniae; assay: Antibacterial activity against Klebsiella pneumoniae ATCC 13883 assessed as reduction in microbial growth incubated for 20 to 22 hrs by CLSI based analysis; assay type: functional; conditions: time 20-22 hrs
[7] = system: Acinetobacter baumannii; assay: Antibacterial activity against Acinetobacter baumannii ATCC 19606 assessed as reduction in microbial growth incubated for 20 to 22 hrs by CLSI based analysis; assay type: functional; conditions: time 20-22 hrs
[8] = system: Escherichia coli; assay: Antibacterial activity against Escherichia coli ATCC 35218 infected in Swiss albino mouse model of Septicaemia infection assessed as log reduction in Septicaemia in blood at 20 mg/kg , iv preincubated for 4 hrs followed by bacterial infection and measured after 4 hrs post infection; assay type: functional; conditions: time 8 hrs
[9] = system: Escherichia coli; assay: Antibacterial activity against Escherichia coli ATCC 35218 infected in Swiss albino mouse model of Septicaemia infection assessed as log reduction in Septicaemia in blood at 1 mg/kg , iv preincubated for 4 hrs followed by bacterial infection and measured after 4 hrs post infection; assay type: functional; conditions: time 8 hrs
[10] = system: Escherichia coli; assay: Antibacterial activity against wild type Escherichia coli ATCC 35218 assessed as reduction in microbial growth incubated for 20 to 22 hrs by CLSI based analysis; assay type: functional; conditions: time 20-22 hrs
[11] = system: Escherichia coli; assay: Antibacterial activity against Escherichia coli ATCC 35218 harboring SbmA assessed as reduction in microbial growth incubated for 20 to 22 hrs by CLSI based analysis; assay type: functional; conditions: time 20-22 hrs
[12] = system: Klebsiella pneumoniae; assay: Antibacterial activity against wild type Klebsiella pneumoniae ATCC 13883 assessed as reduction in microbial growth incubated for 20 to 22 hrs by CLSI based analysis; assay type: functional; conditions: time 20-22 hrs
[13] = system: Klebsiella pneumoniae; assay: Antibacterial activity against Klebsiella pneumoniae ATCC 13883 harboring SbmA assessed as reduction in microbial growth incubated for 20 to 22 hrs by CLSI based analysis; assay type: functional; conditions: time 20-22 hrs
[14] = system: Acinetobacter baumannii; assay: Antibacterial activity against wild type Acinetobacter baumannii ATCC 19606 assessed as reduction in microbial growth incubated for 20 to 22 hrs by CLSI based analysis; assay type: functional; conditions: time 20-22 hrs
[15] = system: Escherichia coli; assay: Antibacterial activity against Escherichia coli ATCC 25922 infected in Swiss albino mouse thigh infection model at 10 mg/kg, iv measured after 1 hr; assay type: functional, organism-based
[16] = system: Klebsiella pneumoniae; assay: Antibacterial activity against Klebsiella pneumoniae ATCC 13883 infected in Swiss albino mouse thigh infection model at 10 mg/kg, iv measured after 1 hr; assay type: functional, organism-based
[17] = system: Klebsiella pneumoniae; assay: Antibacterial activity against Klebsiella pneumoniae ATCC 13883 infected in Swiss albino mouse model of neutropenic lung infection at 10 mg/kg, iv pretreated for 1 hr followed by bacterial infection and measured after 5 hr post infection; assay type: functional, organism-based; conditions: time 6.0 hrs

SMILES | remaining at 4 h [1] [%] | remaining at 4 h [2] [%] | remaining at 1 h [3] [%] | remaining at 1 h [4] [%] | MIC [5] [µg/mL] | MIC [6] [µg/mL] | MIC [7] [µg/mL] | Activity [8] [log10CFU] | Activity [9] [log10CFU] | MIC [10] [µg/mL] | MIC [11] [µg/mL] | MIC [12] [µg/mL] | MIC [13] [µg/mL] | MIC [14] [µg/mL] | Activity [15] | Activity [16] | Activity [17] | Stability ([2]; 4 h) [%] | Stability ([3]; 1 h) [%]
CC[C@H](C)[C@H](NC(=O)[C@@H](NC(=O)[C@H](CO)NC(=O)[C@@H](NC(=O)CNC(=O)[C@H](Cc1ccccc1)N(C)C(=O)[C@@H](O)[C@@H](O)[C@H](CNC(=O)[C@H](NC(=O)[C@H](O)[C@H](C)O)[C@H](O)c1cncn1C)OC)C(C)(C)O)C(C)(C)O)C(=O)N[C@@H](CO)C(=O)O | 11 | 13 | 35 | 20 | 4 | 16 | > 32 | -1.9 |  |  |  |  |  |  |  |  |  |  | 
CO[C@@H](CNC(=O)[C@H](NC(=O)[C@H](O)[C@H](C)O)[C@H](O)c1cncn1C)[C@H](O)[C@H](O)C(=O)N(C)[C@@H](Cc1ccccc1)C(=O)NCC(=O)N[C@H](C(=O)N[C@@H](CO)C(=O)N[C@H](C(=O)N[C@H](C(=O)N[C@@H](CCC(=O)NCc1cc(=O)c(O)cn1O)C(=O)O)C(C)(C)C)C(C)(C)O)C(C)(C)O | 103 | 99 | 100 | 97 |  |  |  |  | -3.2 | 0.01 | 0.12 | 0.25 | > 32 | 0.5 | Active | Active | Active |  | 
CO[C@@H](CNC(=O)[C@H](NC(=O)[C@H](O)[C@H](C)O)[C@H](O)c1cncn1C)[C@H](O)[C@H](O)C(=O)N(C)[C@@H](Cc1ccccc1)C(=O)NCC(=O)N[C@H](C(=O)N[C@@H](CO)C(=O)N[C@H](C(=O)N[C@H](C(=O)N[C@@H](CO)C(=O)N[C@@H](CCC(=O)NCc1cc(=O)c(O)cn1O)C(=O)O)C(C)(C)C)C(C)(C)O)C(C)(C)O | 81 | 86 | 91 | 92 |  |  |  |  | -3.8 | < 0.01 | 0.12 | 0.06 | > 32 | 0.25 | Active | Active | Active |  | 
CO[C@@H](CNC(=O)[C@H](NC(=O)[C@H](O)[C@H](C)O)[C@H](O)c1cncn1C)[C@H](O)[C@H](O)C(=O)N(C)[C@@H](Cc1ccc(F)cc1)C(=O)NCC(=O)N[C@H](C(=O)N[C@@H](CO)C(=O)N[C@H](C(=O)N[C@H](C(=O)N[C@@H](CO)C(=O)N[C@@H](CN)C(=O)NCc1cc(=O)c(O)cn1O)C(C)(C)C)C(C)(C)O)C(C)(C)O | 95 | 107 | 96 | 97 |  |  |  |  |  | 0.01 | 4 | 0.12 | > 32 | 0.5 | Active | Active | Active |  | 
CO[C@@H](CNC(=O)[C@H](NC(=O)[C@H](O)[C@H](C)O)[C@H](O)c1cncn1C)[C@H](O)[C@H](O)C(=O)N(C)[C@@H](Cc1ccccc1)C(=O)N[C@@H](C)C(=O)N[C@H](C(=O)N[C@@H](CO)C(=O)N[C@H](C(=O)N[C@@H](CC(C)C)C(=O)N[C@@H](CO)C(=O)O)C(C)(C)O)C(C)(C)O |  |  |  |  | 8 | > 32 | > 32 |  |  |  |  |  |  |  |  |  |  |  | 
CO[C@@H](CNC(=O)[C@H](NC(=O)[C@H](O)[C@H](C)O)[C@H](O)c1cncn1C)[C@H](O)[C@H](O)C(=O)N(C)[C@@H](Cc1ccc(F)cc1)C(=O)NCC(=O)N[C@H](C(=O)N[C@@H](CO)C(=O)N[C@H](C(=O)N[C@H](C(=O)N[C@@H](CO)C(=O)NCc1cc(=O)c(O)cn1O)C(C)(C)C)C(C)(C)O)C(C)(C)O | 28 | 54 | 81 | 44 |  |  |  |  | -5.6 | < 0.01 | 2 | 0.125 | > 32 | 0.5 |  |  |  |  | 
CO[C@@H](CNC(=O)[C@H](NC(=O)[C@H](O)[C@H](C)O)[C@H](O)c1cncn1C)[C@H](O)[C@H](O)C(=O)N(C)[C@@H](Cc1ccc(F)cc1)C(=O)NCC(=O)N[C@H](C(=O)N[C@@H](CO)C(=O)N[C@H](C(=O)N[C@H](C(=O)N[C@@H](CO)C(=O)NCCN)C(C)(C)C)C(C)(C)O)C(C)(C)O | 92 |  |  | 105 | 0.125 | 0.25 | > 8 |  | -5.6 |  |  |  |  |  |  |  |  | 138 | 127
CO[C@@H](CNC(=O)[C@H](NC(=O)[C@H](O)[C@H](C)O)[C@H](O)c1cncn1C)[C@H](O)[C@H](O)C(=O)N(C)[C@@H](Cc1ccccc1)C(=O)NCC(=O)N[C@H](C(=O)N[C@@H](CO)C(=O)N[C@@H](C)C(=O)N[C@@H](CC(C)C)C(=O)N[C@@H](CO)C(=O)O)C(C)(C)O |  |  |  |  | 32 | 64 | > 32 |  |  |  |  |  |  |  |  |  |  |  | 
CO[C@@H](CNC(=O)[C@H](NC(=O)[C@H](O)[C@H](C)O)[C@H](O)c1cncn1C)[C@H](O)[C@H](O)C(=O)N(C)[C@@H](Cc1ccccc1)C(=O)NCC(=O)N[C@H](C(=O)N[C@@H](C)C(=O)N[C@H](C(=O)N[C@@H](CC(C)C)C(=O)N[C@@H](CO)C(=O)O)C(C)(C)O)C(C)(C)O |  |  |  |  | 4 | > 32 | > 32 |  |  |  |  |  |  |  |  |  |  |  | 
CO[C@@H](CNC(=O)[C@H](NC(=O)[C@H](O)[C@H](C)O)[C@H](O)c1cncn1C)[C@H](O)[C@H](O)C(=O)N(C)[C@@H](Cc1ccccc1)C(=O)NCC(=O)N[C@H](C(=O)N[C@@H](CO)C(=O)N[C@H](C(=O)N[C@@H](CC(C)C)C(=O)N[C@@H](CO)C(=O)NCCN)C(C)(C)O)C(C)(C)O |  |  |  |  | 2 | 8 | > 32 | -4.1 |  |  |  |  |  |  |  |  |  |  | 
CO[C@@H](CNC(=O)[C@H](NC(=O)[C@H](O)[C@H](C)O)[C@H](O)c1cncn1C)[C@H](O)[C@H](O)C(=O)N(C)[C@@H](Cc1ccc(F)cc1)C(=O)NCC(=O)N[C@H](C(=O)N[C@@H](CO)C(=O)N[C@H](C(=O)N[C@H](C(=O)N[C@@H](CO)C(=O)O)C(C)(C)C)C(C)(C)O)C(C)(C)O | 109 | 84 | 89 | 109 | 0.5 | 0.5 | > 32 |  |  |  |  |  |  |  |  |  |  |  | 
CO[C@@H](CNC(=O)[C@H](NC(=O)[C@H](O)[C@H](C)O)[C@H](O)c1cncn1C)[C@H](O)[C@H](O)C(=O)N(C)[C@@H](Cc1ccccc1)C(=O)NCC(=O)N[C@H](C(=O)N[C@@H](CO)C(=O)N[C@H](C(=O)N[C@@H](CC(C)C)C(=O)N[C@@H](C)C(=O)O)C(C)(C)O)C(C)(C)O |  |  |  |  | 4 | 16 | > 32 |  |  |  |  |  |  |  |  |  |  |  | 
CO[C@@H](CNC(=O)[C@H](N)[C@H](O)c1cncn1C)[C@H](O)[C@H](O)C(=O)N(C)[C@@H](Cc1ccccc1)C(=O)NCC(=O)N[C@H](C(=O)N[C@@H](CO)C(=O)N[C@H](C(=O)N[C@@H](CC(C)C)C(=O)N[C@@H](CO)C(=O)O)C(C)(C)O)C(C)(C)O |  |  |  |  | > 64 | > 64 | > 32 |  |  |  |  |  |  |  |  |  |  |  | 
